Results as given in US20260158102A1, “CYCLIC PEPTIDE DERIVATIVE COMPOSITION FOR TREATING OR PREVENTING NEUROPATHIC PAIN AND/OR INFLAMMATORY PAIN” (DKS Co. Ltd., priority 2022, published 2026).

Experiment: Body weight measurement in rat STZ-induced diabetes model
Format: in vivo
Conditions: mean ± SE, in g (unit assumed)
Protocol: Compound 9 (50 mg/mL) was diluted with water for injection to obtain a 1 mg/mL administration specimen. For the specimens to be administered at 0.1 mg/mL and 0.01 mg/mL, the specimen to be administered at 1 mg/mL was diluted stepwise with water for injection. Each administration specimen was divided into PP disposable tubes every day and stored in a storehouse (freezer: MDF-MU339H-PJ, PHC Corporation) under the condition of freezing (−30° C. to −20° C., measured value: −26.4 to −24.5° C.). Preparation was performed on the day before the start of administration.
Water for injection was added to and dissolved in Pregabalin taken out from the capsule to obtain 2 mg/mL. It was prepared before use.
• Animal species: rat (SPF) • Strain: Crl: CD (SD) • Date of animal acquisition, gender, age in weeks, number of animals acquired, and weight range after 1 day of acquisition • First and second courses: Apr. 6, 2022, male, 7 weeks old, 35 animals, 217 to 237 g • Third and fourth courses: Apr. 13, 2022, male, 7 weeks old, 35 animals, 216 to 235 g • Source: […].
• Dose volume: calculated at 2 mL/kg based on the body weight on the day of administration. • Number of times of administration: once • Day of administration: 7 days before the day of starting administration of the test substance.
• Dose volume: calculated at 1 mL/kg based on the body weight on the day of administration. • Number of times of administration: 9 times • Interval of administration: once every 3 days (evaluation was performed on the day after administration) • Day of starting administration: day 8 of STZ administration (day of STZ administration is counted as day 1).
• Dose volume: calculated at 10 mL/kg based on the body weight on the day of administration. • Number of times of administration: Administration was performed once on the day of evaluation of neuropathic pain, twice in total, and on the other days of administration, a vehicle for a control substance (water for injection) was orally administered.
• Measurement was performed every day after the day of STZ administration.
The mean and standard error of each group were calculated for the 50% withdrawal threshold, body weight, and blood glucose level.
The body weight was an integer.
No significant difference test of body weight and blood glucose levels was performed.

CC[C@@]1(C)Oc2cc(ccc2O)C[C@H](NC)C(=O)N[C@@H](C(C)C)C(=O)N[C@@H]1C(=O)N[C@@H](CC(=O)O)C(=O)O [Compound 9] gave a Body weight (0.01 mg/kg iv, day 1 of STZ administration) of 295 ± 5, a Body weight (0.01 mg/kg iv, day 2 of STZ administration) of 281 ± 4 and a Body weight (0.01 mg/kg iv, day 3 of STZ administration) of 277 ± 4. The Body weight (0.01 mg/kg iv, day 4 of STZ administration) was 280 ± 5, the Body weight (0.01 mg/kg iv, day 5 of STZ administration) was 282 ± 5 and the Body weight (0.01 mg/kg iv, day 6 of STZ administration) was 287 ± 5. For the same molecule, the Body weight (0.01 mg/kg iv, day 7 of STZ administration) was 291 ± 5, the Body weight (0.01 mg/kg iv, day 8 of STZ administration) was 290 ± 6 and the Body weight (0.01 mg/kg iv, day 9 of STZ administration) was 292 ± 5. For the same molecule, the Body weight (0.01 mg/kg iv, day 10 of STZ administration) was 297 ± 6, the Body weight (0.01 mg/kg iv, day 11 of STZ administration) was 298 ± 6 and the Body weight (0.01 mg/kg iv, day 12 of STZ administration) was 302 ± 7. For the same molecule, the Body weight (0.01 mg/kg iv, day 13 of STZ administration) was 304 ± 6, the Body weight (0.01 mg/kg iv, day 14 of STZ administration) was 306 ± 7 and the Body weight (0.01 mg/kg iv, day 15 of STZ administration) was 306 ± 8. It also gave a Body weight (0.01 mg/kg iv, day 16 of STZ administration) of 307 ± 8, a Body weight (0.01 mg/kg iv, day 17 of STZ administration) of 309 ± 8 and a Body weight (0.01 mg/kg iv, day 18 of STZ administration) of 311 ± 8. The Body weight (0.01 mg/kg iv, day 19 of STZ administration) was 309 ± 8, the Body weight (0.01 mg/kg iv, day 20 of STZ administration) was 312 ± 8 and the Body weight (0.01 mg/kg iv, day 21 of STZ administration) was 312 ± 8. The Body weight (0.01 mg/kg iv, day 22 of STZ administration) was 311 ± 9, the Body weight (0.01 mg/kg iv, day 23 of STZ administration) was 312 ± 9 and the Body weight (0.01 mg/kg iv, day 24 of STZ administration) was 310 ± 9. The Body weight (0.01 mg/kg iv, day 25 of STZ administration) was 312 ± 10, the Body weight (0.01 mg/kg iv, day 26 of STZ administration) was 315 ± 10 and the Body weight (0.01 mg/kg iv, day 27 of STZ administration) was 308 ± 10. The Body weight (0.01 mg/kg iv, day 28 of STZ administration) was 312 ± 10, the Body weight (0.01 mg/kg iv, day 29 of STZ administration) was 311 ± 11 and the Body weight (0.01 mg/kg iv, day 30 of STZ administration) was 313 ± 11. The Body weight (0.01 mg/kg iv, day 31 of STZ administration) was 309 ± 11, the Body weight (0.01 mg/kg iv, day 32 of STZ administration) was 310 ± 12 and the Body weight (0.01 mg/kg iv, day 33 of STZ administration) was 308 ± 12. It also gave a Body weight (0.01 mg/kg iv, day 34 of STZ administration) of 313 ± 12, a Body weight (0.1 mg/kg iv, day 1 of STZ administration) of 293 ± 4 and a Body weight (0.1 mg/kg iv, day 2 of STZ administration) of 279 ± 5. It also gave a Body weight (0.1 mg/kg iv, day 3 of STZ administration) of 275 ± 5, a Body weight (0.1 mg/kg iv, day 4 of STZ administration) of 277 ± 6 and a Body weight (0.1 mg/kg iv, day 5 of STZ administration) of 280 ± 5. The Body weight (0.1 mg/kg iv, day 6 of STZ administration) was 285 ± 5, the Body weight (0.1 mg/kg iv, day 7 of STZ administration) was 289 ± 5 and the Body weight (0.1 mg/kg iv, day 8 of STZ administration) was 287 ± 5. The Body weight (0.1 mg/kg iv, day 9 of STZ administration) was 292 ± 5, the Body weight (0.1 mg/kg iv, day 10 of STZ administration) was 295 ± 6 and the Body weight (0.1 mg/kg iv, day 11 of STZ administration) was 298 ± 6. It also gave a Body weight (0.1 mg/kg iv, day 12 of STZ administration) of 300 ± 4, a Body weight (0.1 mg/kg iv, day 13 of STZ administration) of 303 ± 6 and a Body weight (0.1 mg/kg iv, day 14 of STZ administration) of 305 ± 5. It also gave a Body weight (0.1 mg/kg iv, day 15 of STZ administration) of 300 ± 6, a Body weight (0.1 mg/kg iv, day 16 of STZ administration) of 302 ± 7 and a Body weight (0.1 mg/kg iv, day 17 of STZ administration) of 307 ± 7. The Body weight (0.1 mg/kg iv, day 18 of STZ administration) was 305 ± 7, the Body weight (0.1 mg/kg iv, day 19 of STZ administration) was 310 ± 8 and the Body weight (0.1 mg/kg iv, day 20 of STZ administration) was 312 ± 8. It also gave a Body weight (0.1 mg/kg iv, day 21 of STZ administration) of 307 ± 7, a Body weight (0.1 mg/kg iv, day 22 of STZ administration) of 311 ± 7 and a Body weight (0.1 mg/kg iv, day 23 of STZ administration) of 314 ± 8. It also gave a Body weight (0.1 mg/kg iv, day 24 of STZ administration) of 312 ± 7, a Body weight (0.1 mg/kg iv, day 25 of STZ administration) of 312 ± 7 and a Body weight (0.1 mg/kg iv, day 26 of STZ administration) of 312 ± 7. It also gave a Body weight (0.1 mg/kg iv, day 27 of STZ administration) of 310 ± 8, a Body weight (0.1 mg/kg iv, day 28 of STZ administration) of 315 ± 8 and a Body weight (0.1 mg/kg iv, day 29 of STZ administration) of 311 ± 7. For the same molecule, the Body weight (0.1 mg/kg iv, day 30 of STZ administration) was 313 ± 8, the Body weight (0.1 mg/kg iv, day 31 of STZ administration) was 310 ± 8 and the Body weight (0.1 mg/kg iv, day 32 of STZ administration) was 312 ± 8. It also gave a Body weight (0.1 mg/kg iv, day 33 of STZ administration) of 308 ± 8, a Body weight (1 mg/kg iv, day 1 of STZ administration) of 293 ± 5 and a Body weight (1 mg/kg iv, day 2 of STZ administration) of 282 ± 6. The Body weight (1 mg/kg iv, day 3 of STZ administration) was 277 ± 4, the Body weight (1 mg/kg iv, day 4 of STZ administration) was 279 ± 4 and the Body weight (1 mg/kg iv, day 5 of STZ administration) was 284 ± 5. It also gave a Body weight (1 mg/kg iv, day 6 of STZ administration) of 286 ± 5, a Body weight (1 mg/kg iv, day 7 of STZ administration) of 291 ± 5 and a Body weight (1 mg/kg iv, day 8 of STZ administration) of 290 ± 5. The Body weight (1 mg/kg iv, day 9 of STZ administration) was 291 ± 5, the Body weight (1 mg/kg iv, day 10 of STZ administration) was 294 ± 6 and the Body weight (1 mg/kg iv, day 11 of STZ administration) was 300 ± 7. The Body weight (1 mg/kg iv, day 12 of STZ administration) was 299 ± 6, the Body weight (1 mg/kg iv, day 13 of STZ administration) was 303 ± 6 and the Body weight (1 mg/kg iv, day 14 of STZ administration) was 302 ± 6. For the same molecule, the Body weight (1 mg/kg iv, day 15 of STZ administration) was 303 ± 7, the Body weight (1 mg/kg iv, day 16 of STZ administration) was 303 ± 8 and the Body weight (1 mg/kg iv, day 17 of STZ administration) was 305 ± 8. For the same molecule, the Body weight (1 mg/kg iv, day 18 of STZ administration) was 306 ± 7, the Body weight (1 mg/kg iv, day 19 of STZ administration) was 307 ± 7 and the Body weight (1 mg/kg iv, day 20 of STZ administration) was 305 ± 9. For the same molecule, the Body weight (1 mg/kg iv, day 21 of STZ administration) was 304 ± 8, the Body weight (1 mg/kg iv, day 22 of STZ administration) was 309 ± 8 and the Body weight (1 mg/kg iv, day 23 of STZ administration) was 309 ± 9. For the same molecule, the Body weight (1 mg/kg iv, day 24 of STZ administration) was 311 ± 9, the Body weight (1 mg/kg iv, day 25 of STZ administration) was 309 ± 9 and the Body weight (1 mg/kg iv, day 26 of STZ administration) was 311 ± 9. The Body weight (1 mg/kg iv, day 27 of STZ administration) was 308 ± 9, the Body weight (1 mg/kg iv, day 28 of STZ administration) was 309 ± 9 and the Body weight (1 mg/kg iv, day 29 of STZ administration) was 310 ± 9. It also gave a Body weight (1 mg/kg iv, day 30 of STZ administration) of 308 ± 10, a Body weight (1 mg/kg iv, day 31 of STZ administration) of 306 ± 9 and a Body weight (1 mg/kg iv, day 32 of STZ administration) of 309 ± 10. For the same molecule, the Body weight (1 mg/kg iv, day 33 of STZ administration) was 308 ± 10.
